One series is described as follows: in vitro. Conditions: African green monkey.
The subject of series [1] is chikungunya virus (CHIKV). Put plainly: Chikungunya virus-cell based antiviral assay (inhibition of virus-induced cell death, MTS readout). Conditions: for EC50: Chikungunya virus, Vero, read-out: EC50 (50% effective concentration, inhibits CHIKV-induced cell death by 50%); for selectivity index (SI), CC50 Vero/EC50 CHIKV: ratio of CC50 to EC50.

On to `CCN(CC)CCCC(C)Nc1ccnc2cc(Cl)ccc12` (centres unmarked) [Chloroquine, chloroquine, reference compound], for which the CC50 in the series “in vitro” was determined as 89 ± 28 µM. Moreover, the EC50 in series [1] turned out to be 10 ± 5 µM.

As to `C=C(C)C12OC3(c4ccccc4)OC1C1C4OC4(CO)C(O)C4(O)C(O)C(C)=CC4C1(O3)C(C)C2OC(=O)C(C)CCCCCCCC` (centres unmarked) [Compound 1, Trigocherrierin A], the CC50 in the series “in vitro” was 43 ± 16 µM. In series [1], the EC50 was 0.6 ± 0.1 µM and the “selectivity index (SI), CC50 Vero/EC50 CHIKV” value is 71.7.

As for `CC1CCCCCCC(C)C(=O)OC2C(=CCl)C=C3C2(O)C(O)C2(CO)OC2C2C4OC5(c6ccccc6)OC(C(C)C32O5)C4(O)C(O)(CO)C1` (centres unmarked) [Compound 2, Trigocherriolide E], in “in vitro”, the CC50 stood at 6.6 ± 0.6 µM. Further, in series [1], the EC50 came to 0.7 ± 0.1 µM and the “selectivity index (SI), CC50 Vero/EC50 CHIKV” value amounted to 9.4.

The values above are taken from article PMC6270878, “Trigocherrierin A, a Potent Inhibitor of Chikungunya Virus Replication” (Molecules, 2014).
